One experiment deals with human GLP-1R (Homo sapiens, UniProt P43220). Briefly: Agonistic activity on GLP-1R of different species (LANCE Ultra cAMP assay): human. Type of experiment: cell-based. Further details: expressed in transfected cells; host or cells: HEK293/CRE/GLP-1R clonal cells. The settings on record: ratio of EC50 value of other species to human EC50 value.
The target of the next experiment is T1, rat GLP-1R (Rattus norvegicus, UniProt P32301).
T1 construct: expressed in transfected cells
T1 sequence (P32301 22-463): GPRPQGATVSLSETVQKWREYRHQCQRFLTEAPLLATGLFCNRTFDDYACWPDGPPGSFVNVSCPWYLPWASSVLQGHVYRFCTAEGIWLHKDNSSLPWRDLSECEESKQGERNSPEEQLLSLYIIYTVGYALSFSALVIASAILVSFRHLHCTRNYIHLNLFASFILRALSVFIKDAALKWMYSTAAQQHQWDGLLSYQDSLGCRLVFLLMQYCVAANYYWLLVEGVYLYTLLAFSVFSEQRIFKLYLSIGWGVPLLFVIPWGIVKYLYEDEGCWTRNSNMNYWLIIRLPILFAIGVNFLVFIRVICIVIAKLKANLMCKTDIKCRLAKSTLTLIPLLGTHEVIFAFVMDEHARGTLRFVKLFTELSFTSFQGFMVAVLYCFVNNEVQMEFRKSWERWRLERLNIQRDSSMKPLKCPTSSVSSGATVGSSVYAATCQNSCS
Briefly: Agonistic activity on GLP-1R of different species (LANCE Ultra cAMP assay): rat. The settings on record: ratio of EC50 value of other species to human EC50 value. Type of experiment: cell-based.

A further experiment deals with cat GIPR. Description: Agonistic activity on GIPR of different species (LANCE Ultra cAMP assay): cat. The conditions noted are these: ratio of EC50 value of other species to human EC50 value. Type of experiment: cell-based. Here is the method:
CHO-K1 cells were seeded in a 6-well plate at 0.6×10^6 cells/well and incubated overnight in an incubator at a temperature of 37 °C and a carbon dioxide concentration of 5%. The next day, CHO-K1 cell media were replaced. Then two tubes A and B were prepared for each plasmid. 100 µL Opti-MEM was added to tube A, then 4 µL Lipofectamine™ 3000 was added and mixed uniformly. 100 µL Opti-MEM was firstly added to tube B, then 2 µg of one of the plasmids (human GLP-1R-pcDNA5 (+) plasmid, cat GLP-1R-pcDNA5 (+) plasmid, human GIPR-pcDNA5 (+) plasmid, cat GIPR-pcDNA5 (+) plasmid) was added and mixed uniformly, and 4 µL P3000™ was added to tube B and mixed uniformly (the ratio of plasmid to transfection reagent was 1 µg: 2 µL). The diluted solution in tube A was added to the diluted solution in tube B, mixed evenly, and incubated at room temperature for 15 minutes. […]
18-20 hours after transfection, human GLP-1R-CHO, cat GLP-1R-CHO, human GIPR-CHO, cat GIPR-CHO cells were resuspended in 1×Casein Stimulation Buffer (HBSS, 5 mM HEPES, 0.5 mM IBMX, 0.1% casein, pH7.4), and seeded into a 384-well cell culture plate at 9 µL/well (cell numbers being 2000, 2000, 1000, 2000 cells/well, respectively). […] The readings at 665 nm and 620 nm were determined with a 330 nm excitation light on a microplate reader. The 665 nm/620 nm reading ratio was calculated. […]

A further experiment relates to obese dogs. Briefly: Weight loss efficacy in obese dogs. Type of experiment: in vivo. The settings on record: for SFV, change rate in abdominal fat indicators / TFV, change rate in abdominal fat indicators / VFV, change rate in abdominal fat indicators / rSFV, change rate in abdominal fat indicators / rVFV, change rate in abdominal fat indicators: Mean±SEM. The method, then:
In this study, the compound of the present invention was administered subcutaneously to obese dogs multiple times to detect changes in their body weights and elucidate the weight loss effect of the compound. Obese dogs aged 8 months or older with a body condition score (BCS) ≥6 were used in this study. The dogs were housed in appropriately sized cages under controlled environmental conditions with a room temperature of 20-26°C and a relative humidity of 40%-70%, and had free access to food and water. Experimental dogs with similar body weights and BCSs (body weight: 15~24 kg, BCS: 6~9) were randomly divided into four groups (n=6 per group): G1, G2, G3, and G4. Group G1 served as the vehicle control group. […] For Group G2 obese dogs, the first dose (4 nmol/kg) was administered on Day 1 (D1) and Day 8 (D8), adjusted to the second dose (6 nmol/kg) on Day 15 (D15), and further adjusted to the third dose ([…]) on Day 22 (D22), which third dose (96 nmol/kg) was maintained for the subsequent administrations on Day 29 (D29) and Day 36 (D36). For Group G3 obese dogs, the first dose (12 nmol/kg) was administered on D1 and D8, adjusted to the second dose (19 nmol/kg) on D15, and further adjusted to the third dose ([…]) on D22, which third dose (385 nmol/kg) was also maintained for the subsequent administrations on D29 and D36. For Group G4 dogs, the positive control Dirlotapide was administered orally at a dose of 0.5 mg/kg once per day (QD) for 42 consecutive days.
After administration, the body weights of dogs in Group G4 receiving Dirlotapide were measured at a fixed time once daily, while the body weights of dogs in the other groups (G1, G2, and G3) were measured at a fixed time once every 7 days. Food intake was measured once per day after administration. Blood tests for routine and biochemical parameters were conducted before grouping and on D43. Imaging examinations of abdominal fat volume were performed before grouping and from D43 to D45 to measure total abdominal fat volume (TFV) and visceral abdominal fat volume (VFV), and to calculate subcutaneous abdominal fat (SFV). Body condition score (BCS), body mass index (BMI), and abdominal circumference (AC) were measured once a week. The data were statistically analyzed using ANOVA. If ANOVA was statistically significant (p < 0.05) and variances were homogeneous, Tukey's test was used for intergroup comparison. If variances were heterogeneous, Dunnet's T3 test was used. Results were expressed as mean ± standard error of the mean (Mean ± SEM). The significance level was set at 0.05, and both statistical and biological significance were considered in the analysis.

Where [1] appears, read: D43, 4/6/96 nmol/kg s.c. QW, six administrations.
[2] abbreviates: D43, 12/19/385 nmol/kg s.c. QW, six administrations.

SMILES strings stand for the structures.

Chain of human GLP-1R (P43220 24-463): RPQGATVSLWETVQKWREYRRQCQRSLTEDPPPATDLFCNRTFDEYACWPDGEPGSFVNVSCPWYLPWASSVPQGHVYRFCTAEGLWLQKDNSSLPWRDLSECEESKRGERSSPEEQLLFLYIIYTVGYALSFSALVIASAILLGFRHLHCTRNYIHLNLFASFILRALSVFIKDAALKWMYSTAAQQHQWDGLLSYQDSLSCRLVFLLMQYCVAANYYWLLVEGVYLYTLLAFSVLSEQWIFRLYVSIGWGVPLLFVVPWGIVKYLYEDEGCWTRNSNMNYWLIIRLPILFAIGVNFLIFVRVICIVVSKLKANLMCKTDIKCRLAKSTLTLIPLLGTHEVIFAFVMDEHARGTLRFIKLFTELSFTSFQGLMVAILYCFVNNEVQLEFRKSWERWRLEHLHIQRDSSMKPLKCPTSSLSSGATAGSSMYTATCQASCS

As to `CC[C@H](C)[C@H](NC(=O)C(C)(C)NC(=O)[C@H](Cc1ccc(O)cc1)NC(=O)[C@H](CC(=O)O)NC(=O)[C@H](CO)NC(=O)[C@@H](NC(=O)C(C)(Cc1ccccc1)NC(=O)[C@@H](NC(=O)CNC(=O)[C@H](CCC(=O)O)NC(=O)C(C)(C)NC(=O)[C@@H](N)Cc1ccc(O)cc1)[C@@H](C)O)[C@@H](C)O)C(=O)NC(C)(C)C(=O)N[C@@H](CC(C)C)C(=O)N[C@@H](CC(=O)O)C(=O)N[C@@H](CCCCN)C(=O)N[C@@H](CCC(N)=O)C(=O)N[C@@H](C)C(=O)N[C@@H](CCC(N)=O)C(=O)N[C@@H](C)C(=O)N[C@@H](CCC(=O)O)C(=O)N[C@@H](Cc1ccccc1)C(=O)N[C@H](C(=O)N[C@@H](CCCCNC(=O)COCCOCCNC(=O)COCCOCCNC(=O)COCCOCCNC(=O)CC[C@H](NC(=O)CCCCCCCCCCCCCCCCCCCCC(=O)O)C(=O)O)C(=O)N[C@@H](Cc1c[nH]c2ccccc12)C(=O)N[C@@H](CC(C)C)C(=O)N[C@@H](CC(C)C)C(=O)N[C@@H](CCCCN)C(=O)NCC(=O)NCC(=O)N1CCC[C@H]1C(=O)N[C@@H](CO)C(=O)N[C@@H](CO)C(=O)NCC(=O)N[C@@H](C)C(=O)N1CCC[C@H]1C(=O)N1CCC[C@H]1C(=O)N1CCC[C@H]1C(=O)N[C@@H](CO)C(=O)N[C@@H](CCCCN)C(N)=O)C(C)C` (stereo partly shown) [Compound P016], at human GLP-1R, the “GLP-1R EC50 ratio” value is on record as 1.00. In addition, the “GLP-1R EC50 ratio” value at rat GLP-1R is listed as 1.59. For the same molecule, in the experiment on cat GIPR, the “GIPR EC50 ratio” value was 3.59. Moreover, in the experiment on obese dogs (setting [1]), the “SFV, change rate in abdominal fat indicators” value is reported as -18.11±4.49; the “TFV, change rate in abdominal fat indicators” value is given as -16.16±5.88; the “VFV, change rate in abdominal fat indicators” value is given as -10.81±10.19; the “rSFV, change rate in abdominal fat indicators” value is listed as 4.80±6.52. Also, in the experiment with obese dogs (setting [1]), the “rVFV, change rate in abdominal fat indicators” value was -1.51±3.56. Also, in the experiment with obese dogs (setting [2]), the “SFV, change rate in abdominal fat indicators” value is -15.14±4.56; the “TFV, change rate in abdominal fat indicators” value was -13.00±4.47; the “VFV, change rate in abdominal fat indicators” value is reported as -9.42±5.39; the “rSFV, change rate in abdominal fat indicators” value worked out at 4.19±4.19. Also, in the experiment with obese dogs (setting [2]), the “rVFV, change rate in abdominal fat indicators” value is given as -2.41±2.12. Further, in the experiment on obese dogs (s.c. QW escalating doses), the “effective dose for weight loss” value is on record as 96 nmol/kg. For the same molecule, in the experiment on obese dogs (s.c. QW escalating doses, equivalent of the nmol/kg dose), the “effective dose for weight loss” value came out at 0.5 mg/kg. This molecule also showed a maximum weight loss with obese dogs (s.c. QW escalating doses, six administrations) of 9.51%.

The values are drawn from patent publication EP4813403A1, “USE OF GLP-1R/GIPR DOUBLE-TARGET AGONIST IN PREPARING ANIMAL DRUG” (Hangzhou Zhongmeihuadong Pharmaceutical Co., Ltd., priority 2023, dated 2025).
